“And” between values parts separate entries of the source, which are not always exact repeats. Equal entries are not always repeated.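 Results reflect a 48-hour exposure of cells in 96-well plates to compound at five concentrations. At the GI50, growth is halved.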 The source made the active and inactive calls. No stated cut-off is given here; in the data, active = GI50 up to about 1.1 µM and inactive = higher.
Columns and labels:
Assay in all cases: DTP human tumour cell line panel, 48 h
NCI/ADR-RES = tested on: NCI/ADR-RES
DU-145 = tested on: DU-145
A549 = tested on: A549
MCF7 = tested on: MCF7
RPMI-8226 = tested on: RPMI-8226
786-0 = tested on: 786-0
HL-60 = tested on: HL-60
OVCAR-4 = tested on: OVCAR-4
MDA-MB-435 = tested on: MDA-MB-435
UACC-62 = tested on: UACC-62
Malme-3M = tested on: Malme-3M
HOP-92 = tested on: HOP-92
SN12C = tested on: SN12C
SW-620 = tested on: SW-620
Hs-578T = tested on: Hs-578T
OVCAR-5 = tested on: OVCAR-5
SK-MEL-2 = tested on: SK-MEL-2
EKVX = tested on: EKVX
A498 = tested on: A498

Measured: GI50

O=C(CC(O)(C(F)(F)F)C(F)(F)F)c1cccs1
inactive: NCI/ADR-RES > 10 µM | DU-145 > 10 µM | A549 > 10 µM | MCF7 > 10 µM | RPMI-8226 > 10 µM | 786-0 > 10 µM | HL-60 > 10 µM | OVCAR-4 > 10 µM | MDA-MB-435 > 10 µM | UACC-62 > 10 µM | Malme-3M > 10 µM | HOP-92 > 10 µM | SN12C > 10 µM | SW-620 > 10 µM | Hs-578T > 10 µM

O=c1[nH]c2nc3ccccc3c(=O)n2/c1=C/c1ccc(Cl)cc1
inactive: OVCAR-5 63.5 µM | NCI/ADR-RES 26.2 µM | DU-145 33.3 µM | A549 > 100 µM | MCF7 50.1 µM | RPMI-8226 82.8 µM | 786-0 24.2 µM | HL-60 48.8 µM | OVCAR-4 > 100 µM | MDA-MB-435 21.7 µM | UACC-62 33.3 µM | Malme-3M 28.9 µM | HOP-92 27.4 µM | SN12C 26.8 µM | SW-620 17.9 µM | Hs-578T 20.8 µM | SK-MEL-2 > 100 µM

COc1ccc(N[S+]([O-])c2ccc(OC)cc2)cc1 (stereo not given)
inactive: OVCAR-5 > 100 µM | NCI/ADR-RES 56.6 µM | DU-145 64.9 µM | A549 33.6 µM | MCF7 31.6 µM | RPMI-8226 47 µM | 786-0 84.9 µM | HL-60 41.2 µM | OVCAR-4 > 100 µM | MDA-MB-435 15.9 µM | UACC-62 14.6 µM | Malme-3M 25.5 µM | EKVX 88.1 µM | SN12C > 100 µM | SW-620 64.6 µM | Hs-578T 34 µM | SK-MEL-2 16.9 µM

O=C(Cl)C1=C(c2ccccc2)C1c1ccccc1 (stereo not given)
inactive: OVCAR-5 > 100 µM | DU-145 > 100 µM | A549 > 100 µM | MCF7 > 100 µM | RPMI-8226 > 100 µM | 786-0 > 100 µM | HL-60 > 100 µM | OVCAR-4 > 100 µM | MDA-MB-435 > 100 µM | UACC-62 > 100 µM | Malme-3M > 100 µM | A498 > 100 µM | HOP-92 > 100 µM | EKVX > 100 µM | SN12C > 100 µM | SW-620 > 100 µM | Hs-578T > 100 µM | SK-MEL-2 > 100 µM

O=C1c2ccccc2-c2nc(-c3cccnc3)cc3c2c1nc1ccccc13
inactive: OVCAR-5 > 100 µM | NCI/ADR-RES > 100 µM | DU-145 > 100 µM | A549 > 100 µM | MCF7 > 100 µM | RPMI-8226 45.8 µM | 786-0 > 100 µM | HL-60 21.2 µM | OVCAR-4 > 100 µM | MDA-MB-435 18.2 µM | UACC-62 32.7 µM | Malme-3M 92.9 µM | HOP-92 > 100 µM | EKVX > 100 µM | SN12C > 100 µM | SW-620 > 100 µM | Hs-578T > 100 µM | SK-MEL-2 > 100 µM

COC(=O)C1OC(O[C@H]2CC[C@]3(C)[C@H]4CC=C5[C@@H]6CC(C)(C)CC[C@]6(C(=O)OC6OCC(O)C(O)C6OC6OC(C)C(OC7OCC(O)C(O)C7O)C(O)C6O)[C@H](O)C[C@@]5(C)[C@]4(C)CC[C@H]3C2(C)C)C(O)C(O)C1O (stereo not given in full)
inactive: OVCAR-5 4.93 µM and 6.59 µM | NCI/ADR-RES 4.08 µM and 3.24 µM | DU-145 9.73 µM and 13.4 µM | A549 3.9 µM and 3.47 µM | RPMI-8226 4.51 µM and 5.06 µM | 786-0 5.56 µM and 8.55 µM | HL-60 2.63 µM and 2.56 µM | MDA-MB-435 2.32 µM and 1.95 µM | A498 1.75 µM and 1.86 µM | HOP-92 1.88 µM and 2.09 µM | EKVX 3.27 µM and 2.82 µM | SN12C 1.84 µM and 1.85 µM | SW-620 13.2 µM and 11.7 µM | Hs-578T 16.4 µM and 16.3 µM | SK-MEL-2 2.7 µM and 2.9 µM

Cc1ccc(NC(=O)C(=O)C2C(=O)C3=C(CC2(C)C)NC2C=CC=CC2S3)c(C)c1 (stereo not given)
inactive: NCI/ADR-RES > 100 µM | DU-145 > 100 µM | A549 > 100 µM | MCF7 > 100 µM | 786-0 66.4 µM | HL-60 > 100 µM | OVCAR-4 > 100 µM | MDA-MB-435 > 100 µM | UACC-62 > 100 µM | HOP-92 38.1 µM | EKVX 73.8 µM | SN12C > 100 µM | SW-620 > 100 µM | Hs-578T 51.3 µM | SK-MEL-2 > 100 µM

CC(C)(C)OC(=O)n1c(Cl)c(C=O)c2ccccc21
inactive: OVCAR-5 35.5 µM | NCI/ADR-RES 30.7 µM | DU-145 19.3 µM | A549 92.9 µM | RPMI-8226 10.9 µM | 786-0 21 µM | HL-60 33.8 µM | OVCAR-4 36.6 µM | MDA-MB-435 43.9 µM | UACC-62 19.3 µM | Malme-3M 19.1 µM | A498 43.6 µM | HOP-92 30.9 µM | EKVX 28 µM | SN12C 23.7 µM | SW-620 36.2 µM | Hs-578T 34.8 µM | SK-MEL-2 30.1 µM

Cc1ccc(S(=O)(=O)c2c(O)c3ccc(O)c(C)c3oc2=O)cc1
inactive: OVCAR-5 > 100 µM | NCI/ADR-RES > 100 µM | DU-145 > 100 µM | A549 > 100 µM | MCF7 > 100 µM | RPMI-8226 > 100 µM | 786-0 > 100 µM | HL-60 23.4 µM | OVCAR-4 > 100 µM | MDA-MB-435 > 100 µM | UACC-62 > 100 µM | Malme-3M > 100 µM | HOP-92 > 100 µM | EKVX > 100 µM | SN12C > 100 µM | SW-620 > 100 µM | Hs-578T > 100 µM | SK-MEL-2 > 100 µM

O=c1ccc(-c2ccc(-n3ccnc3)cc2)nn1CCO
inactive: OVCAR-5 > 100 µM | DU-145 > 100 µM | A549 > 100 µM | MCF7 89.3 µM | RPMI-8226 > 100 µM | 786-0 > 100 µM | HL-60 > 100 µM | OVCAR-4 > 100 µM | MDA-MB-435 > 100 µM | UACC-62 > 100 µM | Malme-3M > 100 µM | A498 > 100 µM | HOP-92 > 100 µM | EKVX 46.6 µM | SN12C > 100 µM | SW-620 > 100 µM | Hs-578T > 100 µM

CCCCCCCCCCCCCCCCP(=O)(O)OP(=O)(O)OCC1OC(n2cnc3c(N)ncnc32)C(O)C1O (stereo not given)
inactive: OVCAR-5 15.5 µM | NCI/ADR-RES 31.1 µM | DU-145 46.9 µM | A549 33.5 µM | MCF7 22.6 µM | 786-0 22.8 µM | HL-60 35.4 µM | OVCAR-4 36.3 µM | MDA-MB-435 30.6 µM | UACC-62 24.3 µM | Malme-3M 22.2 µM | HOP-92 21.4 µM | EKVX 92 µM | SN12C 20.8 µM | SW-620 29 µM | Hs-578T 26.4 µM | SK-MEL-2 42.5 µM
